Data as given in PubChem BioAssay AID1963827 (Molecular Pharmacology Branch, DTP, NCI, 2024).

Test system: 994946-033-R-J1-PDC complex spheroid viability
Experiment: Anticancer human tumor 994946-033-R-J1-PDC patient-derived melanoma cell line growth inhibition [POLQ]
Details: for IC50: curve of first compound; for viability, T/C: stronger effect = lower value; active means viability on the fitted dose curve at most 10% of control; inactive means the rest
Summary of the method: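 PDC + HUVEC + MSC complex spheroids; POLQ inhibitors ± partner drugs; top conc. at/near clinical Cmax, else 10 microM (SN-38 1 microM), half-log dilutions; 37 degrees C, 5% CO2.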

[1] = second compound 0.0316 µM, first compound 0.0316 µM
[2] = second compound 0.0316 µM, first compound 0.1 µM
[3] = second compound 0.0316 µM, first compound 0.316 µM
[4] = second compound 0.0316 µM, first compound 1 µM
[5] = second compound 0.0316 µM, first compound 3.16 µM
[6] = second compound 0.0316 µM, first compound 10 µM
[7] = second compound 0.1 µM, first compound 0.0316 µM
[8] = second compound 0.1 µM, first compound 0.1 µM
[9] = second compound 0.1 µM, first compound 0.316 µM
[10] = second compound 0.1 µM, first compound 1 µM
[11] = second compound 0.1 µM, first compound 3.16 µM
[12] = second compound 0.1 µM, first compound 10 µM
[13] = second compound 0.316 µM, first compound 0.0316 µM
[14] = second compound 0.316 µM, first compound 0.1 µM
[15] = second compound 0.316 µM, first compound 0.316 µM
[16] = second compound 0.316 µM, first compound 1 µM
[17] = second compound 0.316 µM, first compound 3.16 µM
[18] = second compound 0.316 µM, first compound 10 µM
[19] = second compound 1 µM, first compound 0.0316 µM
[20] = second compound 1 µM, first compound 0.1 µM
[21] = second compound 1 µM, first compound 0.316 µM
[22] = second compound 1 µM, first compound 1 µM
[23] = second compound 1 µM, first compound 3.16 µM
[24] = second compound 1 µM, first compound 10 µM
[25] = second compound 3.16 µM, first compound 0.0316 µM
[26] = second compound 3.16 µM, first compound 0.1 µM
[27] = second compound 3.16 µM, first compound 0.316 µM
[28] = second compound 3.16 µM, first compound 1 µM
[29] = second compound 3.16 µM, first compound 3.16 µM
[30] = second compound 3.16 µM, first compound 10 µM
[31] = second compound 10 µM, first compound 0.0316 µM
[32] = second compound 10 µM, first compound 0.1 µM
[33] = second compound 10 µM, first compound 0.316 µM
[34] = second compound 10 µM, first compound 1 µM
[35] = second compound 10 µM, first compound 3.16 µM
[36] = second compound 10 µM, first compound 10 µM
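Further: spheroids exposed to drugs for 7 days.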
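Wherever viability, T/C is given: 100% = DMSO vehicle treated spheroids.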

O=C(Nc1ccc(O)c(NS(=O)(=O)c2ccc(F)cc2)c1)c1ccc(-c2ccccc2)cc1 + Nc1ccc(C#CCN(C(=O)Cc2ncc(C(F)(F)F)cc2C(F)(F)F)c2ccc(F)cc2)nn1
> 10 µM: IC50 (second compound 10 µM)
inactive: viability, T/C [1] 79.4% | viability, T/C [2] 95.7% | viability, T/C [3] 92.9% | viability, T/C [4] 77.1% | viability, T/C [5] 84.1% | viability, T/C [6] 35.6% | viability, T/C [7] 104% | viability, T/C [8] 94.1% | viability, T/C [9] 100% | viability, T/C [10] 111% | viability, T/C [11] 59.8% | viability, T/C [12] 32.7% | viability, T/C [13] 88.2% | viability, T/C [14] 134% | viability, T/C [15] 97.6% | viability, T/C [16] 89.9% | viability, T/C [17] 93.1% | viability, T/C [18] 36.7% | viability, T/C [19] 98.1% | viability, T/C [20] 74.2% | viability, T/C [21] 133% | viability, T/C [22] 117% | viability, T/C [23] 92.8% | viability, T/C [24] 42.9% | viability, T/C [25] 114% | viability, T/C [26] 84.7% | viability, T/C [27] 98.4% | viability, T/C [28] 94.4% | viability, T/C [29] 67.4% | viability, T/C [30] 48.8% | viability, T/C [31] 78.7% | viability, T/C [32] 78.4% | viability, T/C [33] 79% | viability, T/C [34] 96.5% | viability, T/C [35] 76% | viability, T/C [36] 53.1%
8.49 µM: IC50 (second compound 1 µM)
7.55 µM: IC50 (second compound 0.316 µM)
4.79 µM: IC50 (second compound 0.1 µM)
7.1 µM: IC50 (second compound 0.0316 µM)
9.09 µM: IC50 (second compound 3.16 µM)

CNCc1ccc(-c2[nH]c3cc(F)cc4c3c2CCNC4=O)cc1 + Cc1cccc(N(C)C(=O)C2C(O)CCN2c2nc(C)cc(C(F)(F)F)c2C#N)c1
> 10 µM: IC50 (second compound 0.0316 µM) | IC50 (second compound 0.1 µM) | IC50 (second compound 0.316 µM) | IC50 (second compound 1 µM) | IC50 (second compound 3.16 µM) | IC50 (second compound 10 µM)
inactive: viability, T/C [1] 88.4% | viability, T/C [2] 103% | viability, T/C [3] 132% | viability, T/C [4] 77.5% | viability, T/C [5] 94.8% | viability, T/C [6] 78.8% | viability, T/C [7] 85.5% | viability, T/C [8] 117% | viability, T/C [9] 102% | viability, T/C [10] 81.4% | viability, T/C [11] 92% | viability, T/C [12] 92.7% | viability, T/C [13] 113% | viability, T/C [14] 115% | viability, T/C [15] 90.9% | viability, T/C [16] 78.8% | viability, T/C [17] 92.8% | viability, T/C [18] 106% | viability, T/C [19] 105% | viability, T/C [20] 101% | viability, T/C [21] 89.9% | viability, T/C [22] 73.1% | viability, T/C [23] 112% | viability, T/C [24] 104% | viability, T/C [25] 107% | viability, T/C [26] 90.5% | viability, T/C [27] 109% | viability, T/C [28] 100% | viability, T/C [29] 109% | viability, T/C [30] 89.4% | viability, T/C [31] 103% | viability, T/C [32] 79% | viability, T/C [33] 118% | viability, T/C [34] 91.2% | viability, T/C [35] 86.8% | viability, T/C [36] 83.2%

Nc1ccn(C2OC(CO)C(O)C2(F)F)c(=O)n1 (stereo unspecified) + Cc1cccc(N(C)C(=O)C2C(O)CCN2c2nc(C)cc(C(F)(F)F)c2C#N)c1
inactive: viability, T/C [1] 26.7% | viability, T/C [7] 49.3% | viability, T/C [13] 24.7% | viability, T/C [19] 23.1% | viability, T/C [25] 39.7% | viability, T/C [31] 48.6% | viability, T/C [32] 13.3%
active: viability, T/C [2] 6.28% | viability, T/C [3] 4.88% | viability, T/C [4] 6.63% | viability, T/C [5] 3.54% | viability, T/C [6] 2.78% | viability, T/C [8] 5.24% | viability, T/C [9] 5.13% | viability, T/C [10] 4.71% | viability, T/C [11] 4.54% | viability, T/C [12] 2.88% | viability, T/C [14] 5.51% | viability, T/C [15] 5.07% | viability, T/C [16] 4.92% | viability, T/C [17] 4.06% | viability, T/C [18] 1.82% | viability, T/C [20] 7.5% | viability, T/C [21] 4.98% | viability, T/C [22] 4.8% | viability, T/C [23] 4.33% | viability, T/C [24] 2.48% | viability, T/C [26] 6.77% | viability, T/C [27] 4.52% | viability, T/C [28] 5.28% | viability, T/C [29] 4.61% | viability, T/C [30] 2.97% | viability, T/C [33] 6.55% | viability, T/C [34] 5.55% | viability, T/C [35] 5.13% | viability, T/C [36] 1.86%
< 0.0316 µM: IC50 (second compound 0.0316 µM) | IC50 (second compound 0.1 µM) | IC50 (second compound 0.316 µM) | IC50 (second compound 1 µM) | IC50 (second compound 3.16 µM) | IC50 (second compound 10 µM)
